Test results: patent publication US7176192B2, “Method for treating patients for radiation exposure” (BioNumerik Pharmaceuticals, Inc., priority 2001, dated 2007)

Tests used:
mice = assay: intravenous administration of dimesna to mice, tolerability; type: in vivo; conditions: intravenously, doses higher than 3750 mg/kg
Description: (§1) Mesna and dimesna, as well as some analogues of these compounds, have excellent toxicity profiles in mammalian species. However, it is clear from our earlier discoveries that dimesna has a much lower degree of toxicity relative to mesna; this lower degree of toxicity for dimesna imparts additional therapeutic value to this invention for radiation therapy since it is contemplated that chronic or high doses of dimesna will be needed in some circumstances in order to provide adequate prophylaxis for radiation toxicity as well as for treatment of acute or chronic radiation toxicity.

dogs = assay: intravenous administration of dimesna to dogs, tolerability; type: in vivo; conditions: intravenously, doses higher than 3750 mg/kg
Description: as §1

humans = assay: administration of dimesna to humans, tolerability; type: in vivo; conditions: doses exceeding 15 g/m^2
Description: as §1

[1] = accepted value, species not stated; cited from earlier work

| Compound | adverse effects (mice) | adverse effects (dogs) | adverse effects (humans) | oral LD50 [1] [mg/kg] |
| --- | --- | --- | --- | --- |
| O=S(=O)([O-])CCSSCCS(=O)(=O)[O-].[Na+].[Na+] [Dimesna, disodium 2,2′-dithiobis ethane sulfonate] | no adverse effects | no adverse effects | no major adverse effects | – |
| [Cl-].[Na+] [common table salt] | – | – | – | 3750 |
